In US7718626B2, “ErbB3 binding protein compositions and methods of use” (University of Maryland, Baltimore, priority 2005, dated 2010):

Assays:
Androgen Receptor (AR) = Androgen Receptor (AR) (Homo sapiens, UniProt P10275, T878A)
Procedure: Luciferase Reporter Assays: Vector control or ebp1-transfected LNCaP (5×10^4) cells were plated in twelve-well plates in complete media. When cells reached 50-60% confluence, they were transfected with 0.5 μg of MMTV-luc using the Fugene-6 reagent (Roche). Cells were also transfected with the RL-TK vector as an internal control. […] Luciferase activity was determined as previously described using a Dual-Luciferase kit (Promega, Madison, Wis.). The activities of renilla luciferase were used to normalize any variations in transfection efficiency. The promoter activities of each plasmid construct were calculated as the firefly-renilla luciferase activity ratios. All transfection experiments were carried out in triplicate wells and repeated three times.

LNCaP cells = experiment: Growth in steroid-reduced medium with DHT and/or bicalutamide; type: cell-based, human; conditions: 10^−9 M DHT
Procedure: Cell Growth Assays: To measure growth in complete media, cells (2×10^4) were seeded in triplicate in individual wells of 12-well tissue culture plates in RPMI-1640 with 10% FBS and cultured for the indicated number of days. Cells were trypsinized, stained with Trypan Blue (0.4%), and counted in a hemacytometer. […] Colonies were counted after 10 days of incubation. For studies assessing the effect of dihydrotestosterone (DHT) on cell growth, cells (2×10^4) were plated in 12-well plates in complete media. After a 24-hour attachment period, the medium was replaced with steroid-free medium [phenol red-free RPMI 1640 and 5% charcoal-stripped FBS (Sigma)] for 48 hours. The final concentration of testosterone in the steroid-reduced media was less than 5 pM. After 48 hours of steroid depletion, cells were re-fed with fresh steroid-reduced medium with or without the indicated concentrations of DHT and/or bicalutamide (10 μM), and total cell numbers were assessed 7 days later.

Androgen Receptor (AR), sequence (P10275 whole entry T878A): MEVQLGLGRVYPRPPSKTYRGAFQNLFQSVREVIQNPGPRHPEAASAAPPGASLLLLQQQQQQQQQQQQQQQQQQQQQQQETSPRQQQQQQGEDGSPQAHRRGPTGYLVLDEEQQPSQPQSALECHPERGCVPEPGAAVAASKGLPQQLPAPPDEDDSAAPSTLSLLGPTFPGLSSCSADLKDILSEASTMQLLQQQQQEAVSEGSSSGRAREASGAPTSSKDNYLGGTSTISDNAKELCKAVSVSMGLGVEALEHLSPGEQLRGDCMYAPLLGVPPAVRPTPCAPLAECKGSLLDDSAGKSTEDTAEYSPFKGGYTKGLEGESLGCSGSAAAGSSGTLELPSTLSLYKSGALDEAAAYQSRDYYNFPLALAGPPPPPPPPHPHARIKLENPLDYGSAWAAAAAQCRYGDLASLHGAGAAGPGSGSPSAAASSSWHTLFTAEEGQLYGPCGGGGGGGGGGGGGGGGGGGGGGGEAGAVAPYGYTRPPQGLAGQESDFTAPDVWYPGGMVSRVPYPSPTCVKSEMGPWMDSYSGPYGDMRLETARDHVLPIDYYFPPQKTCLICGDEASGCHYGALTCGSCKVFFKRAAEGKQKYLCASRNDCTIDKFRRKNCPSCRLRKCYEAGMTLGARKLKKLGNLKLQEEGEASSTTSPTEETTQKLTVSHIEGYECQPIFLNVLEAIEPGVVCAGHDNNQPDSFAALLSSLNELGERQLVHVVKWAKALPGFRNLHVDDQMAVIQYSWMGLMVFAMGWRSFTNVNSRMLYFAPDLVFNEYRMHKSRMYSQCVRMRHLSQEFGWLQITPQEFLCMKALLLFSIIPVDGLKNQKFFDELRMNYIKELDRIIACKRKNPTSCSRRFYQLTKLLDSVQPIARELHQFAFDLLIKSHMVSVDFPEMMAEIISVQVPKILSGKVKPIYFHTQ

Structure (SMILES)	activation of luciferase activity (MMTV-luc) (Androgen Receptor (AR); LNCaP vector controls, R1881 10^−8 M)	AR activation (MMTV-luc) (Androgen Receptor (AR); ebp1 transfectants)	stimulation of growth as compared to no DHT (LNCaP cells; Ebp1 transfectants)	stimulation of growth as compared to no DHT (LNCaP cells; LNCaP vector controls, maximal)
C[C@]1(O)CC[C@H]2[C@@H]3CCC4=CC(=O)CCC4=C3C=C[C@@]21C [R1881]	20 fold	neither R1881 nor cyproterone acetate nor the combination thereof stimulated AR activation	–	–
C[C@]12CCC(=O)C[C@@H]1CC[C@@H]1[C@@H]2CC[C@]2(C)[C@@H](O)CC[C@@H]12 [DHT, dihydrotestosterone]	–	–	35%	250%
